# Assay results taken from patent US9242996B2 (Novartis AG, priority 2013, dated 2016).
# Biological target: activated ERK2 (Homo sapiens (Human), UniProt P28482)
# Test: Activated ERK2 (20 pM) Kinase Assay (AlphaScreen, ERKtide phosphorylation)
# Assay type: biochemical
# Details: 0.02 nM ERK2, 400 nM ERKtide peptide, 35 μM ATP, 30 min preincubation
# Procedure, shortened: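 Activated human ERK2 (0.02 nM) preincubated 30 min with compounds, then 400 nM ERKtide and 35 μM ATP added for 4 h at ambient temperature in HEPES pH 7.5, MgCl2, DTT, Tween-20, BSA. EDTA stop; phospho-peptide read by AlphaScreen after overnight dark incubation; four-parameter IC50.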
# Chain of activated ERK2 (P28482 whole entry): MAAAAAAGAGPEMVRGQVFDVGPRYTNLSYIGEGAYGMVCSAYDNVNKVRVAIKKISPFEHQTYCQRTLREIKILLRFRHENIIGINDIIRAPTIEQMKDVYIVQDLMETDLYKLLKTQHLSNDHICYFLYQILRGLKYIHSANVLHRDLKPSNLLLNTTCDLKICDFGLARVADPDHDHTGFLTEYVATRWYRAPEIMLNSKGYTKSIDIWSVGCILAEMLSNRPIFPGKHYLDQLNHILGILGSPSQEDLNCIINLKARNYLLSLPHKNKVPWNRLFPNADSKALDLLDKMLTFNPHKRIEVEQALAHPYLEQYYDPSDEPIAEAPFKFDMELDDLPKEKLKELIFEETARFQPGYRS
row,IC50 [nM],SMILES
1,0.0269,"CSc1cccc([C@@H](CO)NC(=O)c2ccc(-c3nc([C@H]4CC[C@H](O)CC4)cnc3N)cc2F)c1 [Example 388, 4-(3-amino-6-((1r,4S)-4-hydroxy-cyclohexyl)pyrazin-2-yl)-2-fluoro-N-((S)-2-hydroxy-1-(3-(methylthio)phenyl)ethyl)benzamide]"
2,0.0242,"Nc1ncc(C2CCOCC2)nc1-c1ccc(C(=O)N[C@H](CO)c2cc(F)cc(CCl)c2)c(F)c1 [Example 390, (S)-4-(3-amino-6-(tetrahydro-2H-pyran-4-yl)pyrazin-2-yl)-N-(1-(3-(chloromethyl)-5-fluorophenyl)-2-hydroxyethyl)-2-fluorobenzamide]"
3,0.0153,"CSc1cc(F)cc([C@@H](CO)NC(=O)c2ccc(-c3cc(-c4cn(C)nc4C)cnc3N)cc2F)c1 [Example 394, (S)-4-(2-amino-5-(1,3-dimethyl-1H-pyrazol-4-yl)pyridin-3-yl)-2-fluoro-N-(1-(3-fluoro-5-(methylthio)phenyl)-2-hydroxyethyl) benzamide]"
4,0.00827,"CSc1cc(F)cc([C@@H](CO)NC(=O)c2ccc(-c3nc(C4CCOCC4)cnc3N)cc2F)c1 [Example 395, (S)-4-(3-amino-6-(tetrahydro-2H-pyran-4-yl)pyrazin-2-yl)-2-fluoro-N-(1-(3-fluoro-5-(methylthio)phenyl)-2-hydroxyethyl) benzamide]"
5,0.0198,"CSc1cc(F)cc([C@@H](CO)NC(=O)c2ccc(-c3nc([C@H]4CC[C@H](O)CC4)cnc3N)cc2F)c1 [Example 396, 4-(3-amino-6-((1r,4S)-4-hydroxy-cyclohexyl)pyrazin-2-yl)-2-fluoro-N-((S)-1-(3-fluoro-5-(methylthio)phenyl)-2-hydroxyethyl) benzamide]"
6,0.281,"C[C@@H](O)[C@@H](NC(=O)c1ccc(-c2nc([C@H]3CC[C@H](O)CC3)cnc2N)cc1F)c1cccc(Cl)c1 [Example 398, 4-(3-amino-6-((1r,4S)-4-hydroxy-cyclohexyl)pyrazin-2-yl)-N-((1S,2R)-1-(3-chlorophenyl)-2-hydroxypropyl)-2-fluorobenzamide]"
7,0.0463,"CNC[C@@H](NC(=O)c1ccc(-c2nc([C@H]3CC[C@H](O)CC3)cnc2N)cc1F)c1cccc(Cl)c1 [Example 401, 4-(3-amino-6-((1r,4S)-4-hydroxy-cyclohexyl)pyrazin-2-yl)-N-((S)-1-(3-chlorophenyl)-2-(methylamino)ethyl)-2-fluorobenzamide]"
8,0.115,"[N-]=[N+]=NC[C@@H](NC(=O)c1ccc(-c2nc(C3CCOCC3)cnc2N)cc1F)c1cccc(Cl)c1 [Example 404, (S)-4-(3-amino-6-(tetrahydro-2H-pyran-4-yl)pyrazin-2-yl)-N-(2-azido-1-(3-chlorophenyl)ethyl)-2-fluorobenzamide]"
9,0.238,"CC(=O)NC[C@@H](NC(=O)c1ccc(-c2nc([C@H]3CC[C@H](O)CC3)cnc2N)cc1F)c1cccc(Cl)c1 [Example 405, N-((S)-2-acetamido-1-(3-chlorophenyl)ethyl)-4-(3-amino-6-((1r,4S)-4-hydroxy-cyclohexyl)pyrazin-2-yl)-2-fluorobenzamide]"
10,0.249,"CO[C@H]1CC[C@H](c2cnc(N)c(-c3ccc(C(=O)N[C@H](CNC(C)=O)c4cccc(Cl)c4)c(F)c3)n2)CC1 [Example 406, N-((S)-2-acetamido-1-(3-chlorophenyl)ethyl)-4-(3-amino-6-((1r,4S)-4-methoxy-cyclohexyl)pyrazin-2-yl)-2-fluorobenzamide]"
11,0.333,"COC(=O)NC[C@@H](NC(=O)c1ccc(-c2nc(C3CCOCC3)cnc2N)cc1F)c1cccc(Cl)c1 [Example 407, (S)-methyl (2-(4-(3-amino-6-(tetrahydro-2H-pyran-4-yl)pyrazin-2-yl)-2-fluoro-benzamido)-2-(3-chlorophenyl)ethyl)carbamate]"
12,0.0201,"CC(=O)NC[C@@H](NC(=O)c1ccc(-c2nc(C3CCOCC3)cnc2N)cc1F)c1cc(F)cc(Br)c1 [Example 408, (S)-N-(2-acetamido-1-(3-bromo-5-fluorophenyl)ethyl)-4-(3-amino-6-(tetrahydro-2H-pyran-4-yl)pyrazin-2-yl)-2-fluorobenzamide]"
13,0.225,"COC(=O)NC[C@@H](NC(=O)c1ccc(-c2nc(C3CCOCC3)cnc2N)cc1F)c1cccc(Br)c1 [Example 409, (S)-methyl (2-(4-(3-amino-6-(tetrahydro-2H-pyran-4-yl)pyrazin-2-yl)-2-fluoro-benzamido)-2-(3-bromophenyl)ethyl)carbamate]"
14,0.0943,"COC(=O)NC[C@@H](NC(=O)c1ccc(-c2nc(C3CCOCC3)cnc2N)cc1F)c1cc(F)cc(Br)c1 [Example 410, (S)-methyl (2-(4-(3-amino-6-(tetrahydro-2H-pyran-4-yl)pyrazin-2-yl)-2-fluoro-benzamido)-2-(3-bromo-5-fluorophenyl)ethyl) carbamate]"
15,0.0743,"Nc1ncc(C2CCOCC2)nc1-c1ccc(C(=O)N[C@H](CNCCF)c2cc(F)cc(Br)c2)c(F)c1 [Example 411, (S)-4-(3-amino-6-(tetrahydro-2H-pyran-4-yl)pyrazin-2-yl)-N-(1-(3-bromo-5-fluorophenyl)-2-((2-fluoroethyl)amino)ethyl)-2-fluorobenzamide]"
16,0.374,"Nc1ncc([C@H]2CC[C@H](O)CC2)nc1-c1ccc(C(=O)N[C@H](CNCCF)c2cc(F)cc(Br)c2)c(F)c1 [Example 412, 4-(3-amino-6-((1r,4S)-4-hydroxy-cyclohexyl)pyrazin-2-yl)-N-((S)-1-(3-bromo-5-fluorophenyl)-2-((2-fluoroethyl)amino)ethyl)-2-fluorobenzamide]"
17,0.02,"NC[C@@H](NC(=O)c1ccc(-c2nc(C3CCOCC3)cnc2N)cc1F)c1cccc(Br)c1 [Example 414, (S)-N-(2-amino-1-(3-bromophenyl)ethyl)-4-(3-amino-6-(tetrahydro-2H-pyran-4-yl)pyrazin-2-yl)-2-fluorobenzamide]"
18,0.105,"Nc1ncc(C2CCC(F)(F)CC2)nc1-c1ccc(C(=O)N[C@H](CO)c2cccc(Cl)c2)c(F)c1 [Example 435, (S)-4-(3-amino-6-(4,4-difluoro-cyclohexyl)pyrazin-2-yl)-N-(1-(3-chlorophenyl)-2-hydroxyethyl)-2-fluorobenzamide]"
19,0.0485,"Nc1ncc([C@H]2CC[C@H](O)CC2)nc1-c1ccc(C(=O)N[C@H](CO)c2cccc(Br)c2)c(F)c1 [Example 436, 4-(3-amino-6-((1r,4S)-4-hydroxy-cyclohexyl)pyrazin-2-yl)-N-((S)-1-(3-bromophenyl)-2-hydroxyethyl)-2-fluorobenzamide]"
20,0.0701,"Nc1ncc([C@H]2CC[C@@H](O)CC2)cc1-c1ccc(C(=O)N[C@H](CO)c2cccc(Cl)c2)c(F)c1 [Example 440, 4-(2-amino-5-((1s,4R)-4-hydroxy-cyclohexyl)pyridin-3-yl)-N-((S)-1-(3-chlorophenyl)-2-hydroxyethyl)-2-fluorobenzamide]"
21,0.0559,"COC(=O)N[C@H]1CC[C@H](c2cnc(N)c(-c3ccc(C(=O)N[C@H](CO)c4cc(F)cc(Br)c4)c(F)c3)n2)CC1 [Example 441, Methyl ((1S,4r)-4-(5-amino-6-(4-(((S)-1-(3-bromo-5-fluorophenyl)-2-hydroxyethyl)carbamoyl)-3-fluorophenyl)pyrazin-2-yl)cyclohexyl) carbamate]"
22,0.339,"Nc1ncc([C@H]2CC[C@H](O)CC2)cc1-c1ccc(C(=O)N[C@H](CO)c2cccc(Cl)c2)c(F)c1 [Example 442, 4-(2-amino-5-((1r,4S)-4-hydroxy-cyclohexyl)pyridin-3-yl)-N-((S)-1-(3-chlorophenyl)-2-hydroxyethyl)-2-fluorobenzamide]"
23,0.345,"C[C@@H](NC(=O)c1ccc(-c2cc([C@H]3CC[C@H](O)CC3)cnc2N)cc1F)c1cc(F)cc(S(C)(=O)=O)c1 [Example 443, 4-(2-amino-5-((1r,4R)-4-hydroxy-cyclohexyl)pyridin-3-yl)-2-fluoro-N-((R)-1-(3-fluoro-5-(methylsulfonyl)phenyl)ethyl) benzamide]"
24,0.371,"Nc1ncc([C@H]2CC[C@@H](F)CC2)nc1-c1ccc(C(=O)N[C@H](CO)c2cccc(Cl)c2)c(F)c1 [Example 448, 4-(3-amino-6-((1s,4R)-4-fluorocyclohexyl)pyrazin-2-yl)-N-((S)-1-(3-chlorophenyl)-2-hydroxyethyl)-2-fluorobenzamide]"
25,0.184,"Nc1ncc([C@H]2CC[C@H](F)CC2)nc1-c1ccc(C(=O)N[C@H](CO)c2cccc(Cl)c2)c(F)c1 [Example 449, 4-(3-amino-6-((1r,4S)-4-fluorocyclohexyl)pyrazin-2-yl)-N-((S)-1-(3-chlorophenyl)-2-hydroxyethyl)-2-fluorobenzamide]"
26,1.5,"N#CC1CCC(c2cnc(N)c(-c3ccc(C(=O)N[C@H](CO)c4cc(F)cc(Br)c4)c(F)c3)n2)CC1 (stereo partly drawn) [Example 450, (S)-4-(3-amino-6-(4-cyanocyclohexyl)pyrazin-2-yl)-N-(1-(3-bromo-5-fluorophenyl)-2-hydroxyethyl)-2-fluorobenzamide]"
27,0.0442,"N#CC1CCC(c2cnc(N)c(-c3ccc(C(=O)N[C@H](CO)c4cc(F)cc(Br)c4)c(F)c3)n2)CC1 (stereo partly drawn) [Example 451, (S)-4-(3-amino-6-(4-cyanocyclohexyl)pyrazin-2-yl)-N-(1-(3-bromo-5-fluorophenyl)-2-hydroxyethyl)-2-fluorobenzamide]"
28,0.0823,CNC[C@@H](NC(=O)c1ccc(-c2nc([C@H]3CC[C@H](O)C(F)(F)C3)cnc2N)cc1F)c1cc(F)cc(Br)c1 [Example 458]
29,0.0261,"Nc1ncc([C@@H]2CC[C@@H](O)C(F)(F)C2)nc1-c1ccc(C(=O)N[C@H](CO)c2cc(F)cc(Br)c2)c(F)c1 [Example 459, 4-(3-amino-6-((1R,4R)-3,3-difluoro-4-hydroxy-cyclohexyl)pyrazin-2-yl)-2-fluoro-N-((S)-1-(3-fluoro-5-bromophenyl)-2-hydroxyethyl) benzamide]"
